Several values for one entry are separate records, joined by “and”; a condition that tells them apart may be missing. Equal entries are not always repeated.
Tested on: PDC 521955-158-R6-J3 spheroids, viability
Assay: Anticancer human tumor 521955-158-R6-J3-PDC patient-derived pancreatic carcinoma cell line growth inhibition [TAK]
Settings: spheroids with HUVEC and MSC; for viability, T/C: stronger effect = lower value
Method in brief: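 Spheroids of 60% malignant cells, 25% HUVEC and 15% hMSC were exposed to targeted agents combined with TAK-243 or ipatasertib. Concentrations started at or near clinical Cmax (10 microM if unknown) and descended in half-log steps.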

[1] = curve of first compound, second compound 0.3 µM
[2] = curve of first compound, second compound 0.949 µM
[3] = curve of first compound, second compound 3 µM
[4] = curve of first compound, second compound 9.49 µM
[5] = curve of first compound, second compound 30 µM
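Note: spheroids exposed to drugs for 7 days before readout.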
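Throughout, for viability, T/C: 100% = DMSO vehicle control viability.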

Q: For CC(=O)Nc1cccc(-n2c(=O)n(C3CC3)c(=O)c3c(Nc4ccc(I)cc4F)n(C)c(=O)c(C)c32)c1 + CC(C)NCC(C(=O)N1CCN(c2ncnc3c2C(C)CC3O)CC1)c1ccc(Cl)cc1, which IC50 [1] is on record?
A: 7.12 nM

Q: What about the IC50 [2] of the same compound?
A: 2.58 nM

Q: What about the IC50 [3] of the same compound?
A: 1.82 nM

Q: And the IC50 [4]?
A: 2.3 nM

Q: What about the IC50 [5] of the same compound?
A: 1.64 nM

Q: What about the viability, T/C (second compound 0.3 µM, first compound 94.9 pM) of the same compound?
A: 79.6%

Q: And the viability, T/C (second compound 0.3 µM, first compound 0.0003 µM)?
A: 75.7%

Q: And the viability, T/C (second compound 0.3 µM, first compound 0.000949 µM)?
A: 67.9%

Q: And the viability, T/C (second compound 0.3 µM, first compound 0.003 µM)?
A: 58.8%

Q: What about the viability, T/C (second compound 0.3 µM, first compound 0.00949 µM) of the same compound?
A: 46.8%

Q: What about the viability, T/C (second compound 0.3 µM, first compound 0.03 µM) of the same compound?
A: 35.6%

Q: And the viability, T/C (second compound 0.949 µM, first compound 94.9 pM)?
A: 85.6%

Q: And the viability, T/C (second compound 0.949 µM, first compound 0.0003 µM)?
A: 73.7%

Q: What about the viability, T/C (second compound 0.949 µM, first compound 0.000949 µM) of the same compound?
A: 58.5%

Q: And the viability, T/C (second compound 0.949 µM, first compound 0.003 µM)?
A: 49%

Q: And the viability, T/C (second compound 0.949 µM, first compound 0.00949 µM)?
A: 38.3%

Q: And the viability, T/C (second compound 0.949 µM, first compound 0.03 µM)?
A: 25.2%

Q: What about the viability, T/C (second compound 3 µM, first compound 94.9 pM) of the same compound?
A: 78.9%

Q: What about the viability, T/C (second compound 3 µM, first compound 0.0003 µM) of the same compound?
A: 62.1%

Q: What about the viability, T/C (second compound 3 µM, first compound 0.000949 µM) of the same compound?
A: 54.4%

Q: What about the viability, T/C (second compound 3 µM, first compound 0.003 µM) of the same compound?
A: 49%

Q: And the viability, T/C (second compound 3 µM, first compound 0.00949 µM)?
A: 37.6%

Q: And the viability, T/C (second compound 3 µM, first compound 0.03 µM)?
A: 22.2%

Q: And the viability, T/C (second compound 9.49 µM, first compound 94.9 pM)?
A: 77.9%

Q: What about the viability, T/C (second compound 9.49 µM, first compound 0.0003 µM) of the same compound?
A: 62.8%

Q: And the viability, T/C (second compound 9.49 µM, first compound 0.000949 µM)?
A: 53.1%

Q: And the viability, T/C (second compound 9.49 µM, first compound 0.003 µM)?
A: 53.4%

Q: And the viability, T/C (second compound 9.49 µM, first compound 0.00949 µM)?
A: 37.4%

Q: And the viability, T/C (second compound 9.49 µM, first compound 0.03 µM)?
A: 15.2%

Q: What about the viability, T/C (second compound 30 µM, first compound 94.9 pM) of the same compound?
A: 71.9%

Q: And the viability, T/C (second compound 30 µM, first compound 0.0003 µM)?
A: 59.6%

Q: And the viability, T/C (second compound 30 µM, first compound 0.000949 µM)?
A: 55.8%

Q: What about the viability, T/C (second compound 30 µM, first compound 0.003 µM) of the same compound?
A: 47.8%

Q: And the viability, T/C (second compound 30 µM, first compound 0.00949 µM)?
A: 28.5%

Q: What about the viability, T/C (second compound 30 µM, first compound 0.03 µM) of the same compound?
A: 16.1%

Q: What does the source list for CC(C)CC(NC(=O)CNC(=O)c1cc(Cl)ccc1Cl)B1OC(=O)CC(CC(=O)O)(C(=O)O)O1 (centres undefined) + CC(C)NCC(C(=O)N1CCN(c2ncnc3c2C(C)CC3O)CC1)c1ccc(Cl)cc1?
A: IC50 [1]: 55.9 nM; IC50 [2]: 54.3 nM; IC50 [3]: 49.1 nM; IC50 [4]: 41.8 nM; IC50 [5]: 33.6 nM; viability, T/C (second compound 0.3 µM, first compound 0.000316 µM): 86.8%; viability, T/C (second compound 0.3 µM, first compound 0.001 µM): 92.5%; viability, T/C (second compound 0.3 µM, first compound 0.00316 µM): 106%; viability, T/C (second compound 0.3 µM, first compound 0.01 µM): 97.8%; viability, T/C (second compound 0.3 µM, first compound 0.0316 µM): 92.9%; viability, T/C (second compound 0.3 µM, first compound 0.1 µM): 6.28%; viability, T/C (second compound 0.949 µM, first compound 0.000316 µM): 84.3%; viability, T/C (second compound 0.949 µM, first compound 0.001 µM): 93.8%; viability, T/C (second compound 0.949 µM, first compound 0.00316 µM): 97.9%; viability, T/C (second compound 0.949 µM, first compound 0.01 µM): 100%; viability, T/C (second compound 0.949 µM, first compound 0.0316 µM): 89.1%; viability, T/C (second compound 0.949 µM, first compound 0.1 µM): 5.88%; viability, T/C (second compound 3 µM, first compound 0.000316 µM): 86.3%; viability, T/C (second compound 3 µM, first compound 0.001 µM): 90.7%; viability, T/C (second compound 3 µM, first compound 0.00316 µM): 92.6%; viability, T/C (second compound 3 µM, first compound 0.01 µM): 104%; viability, T/C (second compound 3 µM, first compound 0.0316 µM): 78.7%; viability, T/C (second compound 3 µM, first compound 0.1 µM): 3.93%; viability, T/C (second compound 9.49 µM, first compound 0.000316 µM): 92.7%; viability, T/C (second compound 9.49 µM, first compound 0.001 µM): 92.5%; viability, T/C (second compound 9.49 µM, first compound 0.00316 µM): 96.9%; viability, T/C (second compound 9.49 µM, first compound 0.01 µM): 98%; viability, T/C (second compound 9.49 µM, first compound 0.0316 µM): 65%; viability, T/C (second compound 9.49 µM, first compound 0.1 µM): 3.75%; viability, T/C (second compound 30 µM, first compound 0.000316 µM): 82.3%; viability, T/C (second compound 30 µM, first compound 0.001 µM): 85.2%; viability, T/C (second compound 30 µM, first compound 0.00316 µM): 85%; viability, T/C (second compound 30 µM, first compound 0.01 µM): 99.5%; viability, T/C (second compound 30 µM, first compound 0.0316 µM): 52.7%; viability, T/C (second compound 30 µM, first compound 0.1 µM): 2.76%

Q: How did the viability, T/C (compound 0.000316 µM) turn out when CC(C)CC(NC(=O)CNC(=O)c1cc(Cl)ccc1Cl)B1OC(=O)CC(CC(=O)O)(C(=O)O)O1 (centres undefined) was run?
A: 105% and 101%

Q: And the viability, T/C (compound 0.001 µM)?
A: 101% and 102%

Q: What about the viability, T/C (compound 0.00316 µM) of the same compound?
A: 110% and 100%

Q: And the viability, T/C (compound 0.01 µM)?
A: 114% and 107%

Q: What about the viability, T/C (compound 0.0316 µM) of the same compound?
A: 75.9% and 69.7%

Q: And the viability, T/C (compound 0.1 µM)?
A: 10.2% and 9.97%

Q: And the IC50 (curve of compound)?
A: 49.8 nM and 46.2 nM

Q: Which results are given for CC(C)CC(NC(=O)C(Cc1ccccc1)NC(=O)c1cnccn1)B(O)O (centres undefined)?
A: viability, T/C (compound 31.6 pM): 101% and 120%; viability, T/C (compound 0.0001 µM): 97.6% and 107%; viability, T/C (compound 0.000316 µM): 91.6% and 103%; viability, T/C (compound 0.001 µM): 108% and 93.6%; viability, T/C (compound 0.00316 µM): 111% and 87.4%; viability, T/C (compound 0.01 µM): 33.2% and 102%; IC50 (curve of compound): 7.56 nM and > 10 nM

From PubChem BioAssay AID2060350 (Molecular Pharmacology Branch, DTP, NCI, 2025)
